Patent US5210193A, “Piperazine derivatives” (American Cyanamid Company, priority 1990, dated 1993)
Converted amounts (≈) assume the structure as drawn.

Experiments:
Assay in all cases: in vitro antibacterial MIC, agar plate dilution
Type in all cases: cell-based
[1] = test system: Klebsiella pneumoniae MOR 84-4; conditions: Klebsiella pneumoniae, MOR844, 18 h, 35° C., read-out: MIC
Procedure: (§1) The in vitro antimicrobial spectrum of the compounds of ths invention were determined by the agar plate dilution method with Mueller-Hinton agar and an inoculum of each test organism of approximately 10^4 colony forming units delivered by the Steers replicating device. The minimal inhibitory concentration (MIC) in mcg/ml is defined as the lowest concentration of test compound that inhibited visible growth after 18 hours incubation at 35° C. Results are given in Table I, with the test compounds identified by the number of their hereinafter described examples.

[2] = test system: Staphylococcus aureus ATCC 25913; conditions: ATCC25913, 18 hours, 35° C.
Procedure: as §1

[3] = test system: Pseudomonas aeruginosa VGH 84-4; conditions: Pseudomonas aeruginosa, VGH844, 18 h, 35° C., read-out: MIC
Procedure: as §1

[4] = test system: Morganella morganii VGH 84-11; conditions: VGH8411, 18 hours, 35° C., read-out: MIC
Procedure: as §1

[5] = test system: Escherichia coli CMC 84-11; conditions: Escherichia coli, CMC8411, 18 h, 35° C., read-out: MIC
Procedure: as §1

[6] = test system: Proteus rettgeri CMC 84-41; conditions: Providencia rettgeri, CMC8441, 18 h, 35° C., read-out: MIC
Procedure: as §1

[7] = test system: Escherichia coli ATCC 25922; conditions: Escherichia coli, ATCC25922, 18 h, 35° C., read-out: MIC
Procedure: as §1

[8] = test system: Enterobacter aerogenes VGH 84-36; conditions: Klebsiella aerogenes, VGH8436, 18 hours, 35° C., read-out: MIC
Procedure: as §1

[9] = test system: Enterobacter cloacae VGH 84-37; conditions: Enterobacter cloacae, VGH8437, 18 h, 35° C., read-out: MIC
Procedure: as §1

Klebsiella pneumoniae AD = conditions: Klebsiella pneumoniae, 18 h, 35° C., read-out: MIC
Procedure: as §1

[10] = test system: Staphylococcus aureus Smith; conditions: Staphylococcus aureus, 18 h, 35° C., read-out: MIC
Procedure: as §1

SMILES | MIC [1] [µg/mL] | MIC [2] [µg/mL] | MIC [3] [µg/mL] | MIC [4] [µg/mL] | MIC [5] [µg/mL] | MIC [6] [µg/mL] | MIC [7] [µg/mL] | MIC [8] [µg/mL] | MIC [9] [µg/mL] | MIC (Klebsiella pneumoniae AD) [µg/mL] | MIC [10] [µg/mL]
CCn1cc(C(=O)O)c(=O)c2cc(F)c(N3CCNC(c4ccc(Br)s4)C3)cc21 (stereo not shown) [Example 13, 7-[3-(5-Bromo-2-thienyl)-1-piperazinyl]-1-ethyl-6-fluoro-1,4-dihydro-4-oxo-3-quinolinecarboxylic acid] | 64 (≈ 133 µM) | 2 (≈ 4.16 µM) | > 256 | 16 (≈ 33.3 µM) | 16 (≈ 33.3 µM) | 16 (≈ 33.3 µM) | 16 (≈ 33.3 µM) | > 256 | 32 (≈ 66.6 µM) | 16 (≈ 33.3 µM) | 0.5 (≈ 1.04 µM)
CCn1cc(C(=O)O)c(=O)c2cc(F)c(N3CCN(C)C(c4ccco4)C3)cc21 (stereo not shown) [Example 32, 1-Ethyl-6-fluoro-7-[3-(2-furanyl)-4-methyl-1-piperazinyl]-1,4-dihydro-4-oxo-3-quinolinecarboxylic acid] | 2 (≈ 5.01 µM) | 1 (≈ 2.5 µM) | 16 (≈ 40.1 µM) | 2 (≈ 5.01 µM) | 1 (≈ 2.5 µM) | 2 (≈ 5.01 µM) | 1 (≈ 2.5 µM) | 4 (≈ 10 µM) | 1 (≈ 2.5 µM) | 2 (≈ 5.01 µM) | 0.25 (≈ 0.626 µM)
CCn1cc(C(=O)O)c(=O)c2cc(F)c(N3CCN(C)C(c4ccsc4)C3)cc21 (stereo not shown) [Example 35, 1Ethyl-6-fluoro-1,4-dihydro-7-[4-methyl-3-(3-thienyl)-1-piperazinyl]-4-oxo-3-quinolinecarboxylic acid] | 4 (≈ 9.63 µM) | 0.5 (≈ 1.2 µM) | 32 (≈ 77 µM) | 2 (≈ 4.81 µM) | 1 (≈ 2.41 µM) | 2 (≈ 4.81 µM) | 2 (≈ 4.81 µM) | 4 (≈ 9.63 µM) | 2 (≈ 4.81 µM) | 2 (≈ 4.81 µM) | ≤ 0.12
CCn1cc(C(=O)O)c(=O)c2cc(F)c(N3CCN(C)C(c4ccc(C)s4)C3)cc21 (stereo not shown) [Example 38, 1-Ethyl-6-fluoro-1,4-dihydro-7-[4-methyl-3-(5-methyl-2-thienyl)-1-piperazinyl]-4-oxo-3-quinolinecarboxylic acid] | 8 (≈ 18.6 µM) | 0.25 (≈ 0.582 µM) | > 256 | 8 (≈ 18.6 µM) | 4 (≈ 9.31 µM) | 4 (≈ 9.31 µM) | 4 (≈ 9.31 µM) | 4 (≈ 9.31 µM) | 8 (≈ 18.6 µM) | 4 (≈ 9.31 µM) | 0.25 (≈ 0.582 µM)
CCn1cc(C(=O)O)c(=O)c2cc(F)c(N3CCNC(c4ccc(Cl)s4)C3)cc21 (stereo not shown) [Example 34, 7-[3-(5-Chloro-2-thienyl)-1-piperazinyl]-1-ethyl-6-fluoro-1,4-dihydro-4-oxo-3-quinolinecarboxylic acid] | 2 (≈ 4.59 µM) | 0.25 (≈ 0.574 µM) | 16 (≈ 36.7 µM) | 1 (≈ 2.29 µM) | 1 (≈ 2.29 µM) | 1 (≈ 2.29 µM) | 1 (≈ 2.29 µM) | 4 (≈ 9.18 µM) | 1 (≈ 2.29 µM) | 1 (≈ 2.29 µM) | 0.25 (≈ 0.574 µM)

Now those with a lower MIC [1], led by results:

MIC [1] [µg/mL] | MIC [2] [µg/mL] | MIC [3] [µg/mL] | MIC [4] [µg/mL] | MIC [5] [µg/mL] | MIC [6] [µg/mL] | MIC [7] [µg/mL] | MIC [8] [µg/mL] | MIC [9] [µg/mL] | MIC (Klebsiella pneumoniae AD) [µg/mL] | MIC [10] [µg/mL] | SMILES
0.5 (≈ 1.2 µM) | 0.25 (≈ 0.602 µM) | 8 (≈ 19.3 µM) | 0.5 (≈ 1.2 µM) | 0.25 (≈ 0.602 µM) | 0.5 (≈ 1.2 µM) | 0.5 (≈ 1.2 µM) | 0.5 (≈ 1.2 µM) | 0.5 (≈ 1.2 µM) | 0.5 (≈ 1.2 µM) | ≤ 0.12 | CCn1cc(C(=O)O)c(=O)c2cc(F)c(N3CCNC(c4cc(C)cs4)C3)cc21 (stereo not shown) [Example 40, 1-Ethyl-6-fluoro-1,4-dihydro-7-[3-(4-methyl-2-thienyl)-1-piperazinyl]-4-oxo-3-quinolinecarboxylic acid]
0.5 (≈ 1.38 µM) | 2 (≈ 5.5 µM) | 8 (≈ 22 µM) | 0.25 (≈ 0.688 µM) | 0.25 (≈ 0.688 µM) | 0.5 (≈ 1.38 µM) | 0.5 (≈ 1.38 µM) | 0.5 (≈ 1.38 µM) | 0.25 (≈ 0.688 µM) | 0.25 (≈ 0.688 µM) | 0.5 (≈ 1.38 µM) | CCn1cc(C(=O)O)c(=O)c2cc(F)c(N3CCNC(COC)C3)cc21 (stereo not shown) [Example 7, 1-Ethyl-6-fluoro-1,4-dihydro-7-[3-(methoxymethyl)-1-piperazinyl]-4-oxo-3-quinolinecarboxylic acid]
0.25 (≈ 0.626 µM) | ≤ 0.12 | 4 (≈ 10 µM) | 0.25 (≈ 0.626 µM) | ≤ 0.12 | 0.25 (≈ 0.626 µM) | 0.25 (≈ 0.626 µM) | 0.5 (≈ 1.25 µM) | 0.25 (≈ 0.626 µM) | ≤ 0.12 | ≤ 0.12 | CCn1cc(C(=O)O)c(=O)c2cc(F)c(N3CCNC(c4ccc(C)o4)C3)cc21 (stereo not shown) [Example 42, 1-Ethyl-6-fluoro-1,4-dihydro-7-[3-(5-methyl-2-furanyl)-1-piperazinyl]-4-oxo-3-quinolinecarboxylic acid]
